Measured values published in patent US20180289764A1, “TRADITIONAL CHINESE MEDICINE COMPOSITION FOR TREATING PSORIASIS” (Guangdong Provincial Hospital of Chinese Medicine, priority 2015, published 2018).

Legend:
[1] = tested on: psoriasis; conditions: systemic treatment of psoriasis, background table; cited from earlier work
[2] = tested on: propranolol-induced guinea pig psoriasis model; assay: Propranolol-induced guinea pig psoriasis model; format: in vivo, Hartley guinea pigs
Description: The preparation of 5% propranolol hydrochloride emulsion: 5 g propranolol hydrochloride was dissolved with 50% ethanol, 5 mL 1,2-propanediol was added as a composite accelerator, and 5 g PVPK30 was added as a film-forming material. 50% ethanol was added to 100 mL, and preparing into 5% propranolol hydrochloride emulsion until used
80 Hartley guinea pigs weighing 200-250 g with half males and half females were selected in this study, the Hartley guinea pigs were qualified in an adaptive breeding observation. 10 guinea pigs (half male and half female) were used as a normal control group based on a random allocation, and no drugs were administrated to them; the other 70 guinea pigs (half males and half females) were treated with 5% propranolol hydrochloride emulsion (about 200 μL) evenly in the skins behind both of ears, 2 times a day, continuing treating 4 weeks, for modeling. 4 weeks later, 10 guinea pigs were sacrificed to examine whether the model was successful (with the thickness of the ear skin as an index). The remaining 60 guinea pigs were then layered with Excel according to weights, 6 guinea pigs every layer, and the guinea pigs in each layer were randomly assigned to each group, 10 guinea pigs every group, and the guinea pigs were divided into 6 groups in total, that is the model control group, the group of the present invention, the group of patent 201210183904.3, the group of the patent of 200910091066.5, the group of methotrexate tablet and the group of yujin yinxie tablet. The guinea pigs in each group were given by intragastric administration at a volume of 20 mL·kg-1·d-1 in the morning, once every day for 10 days. The normal control group and the model control group were given equal volume of pure water. The guinea pigs were sacrificed one hour after the last administration, and the skin behind both of ears was took off and fixed with 10% formaldehyde solution, embedded in paraffin, and stained with HE, observed under an optical microscope. 10 high-power fields were counted, the thickness of the epidermis was measured with a micrometer, and averaged; the auricular pathology of guinea pigs was used to perform a histological examination, observe vasodilation situations, which were denoted as 0, 0.5, 1 and 2 points according to normal, light, medium and heavy degrees.

[3] = tested on: mouse tail scaled epidermis; assay: Effects on the mouse tail scaled epidermis; format: in vivo, KM mice
From the text: 60 KM mice weighing 18-25 g with half males and half females were selected in this study, the mice were qualified in an adaptive breeding observation. The mice were layered with Excel according to weights, 6 mice every layer, and the mice in each layer were randomly assigned to each group, 10 mice every group, and the mice were divided into 6 groups in total, that is normal control group, the group of the present invention, the group of patent 200910091066.5, the group of the patent of 201210183904.3, the group of methotrexate tablet and the group of yujin yinxie tablet. The mice in each group were given by intragastric administration at a volume of 20 mL·kg-1·d-1 in the morning, once every day for 14 days. The normal control group was given equal volume of pure water. The mice were sacrificed one hour after the last administration, and a long strip of the dorsal skin of the root of the mouse tail (about 1.0 cm×0.2 em) was took off and fixed with 10% formaldehyde solution, embedded in paraffin, and stained with HE. The tail scales of each mouse were observed under an optical microscope. Those where the granulosa layers arranged in rows are in the epidermis of scales between the two follicular orifice, are known as the scales with granulosa layer. […]

SMILES | Efficacy rate (the efficient) [1] | Blood vessel dilatation ([2]; 0, 0.5, 1, 2 points for normal, light, medium, heavy, intragastric 10 days, x ± s, n = 10) [score] | Effect on epidermis thickness of guinea pig ears and hemangiectasis compared with model control ([2]; P<0.01) | Histopathological examination ([2]; guinea pig ear skin, HE stain) | Epidermal thickness ([2]; guinea pig ear skin, intragastric once daily for 10 days, x ± s, n = 10) [μm] | Formation of the epidermis granulosa layer of the mouse tail scale compared with normal control group ([3]; intragastric 14 days, P<0.05 or P<0.01) | The number of scales in the granulosa layer ([3]; per 100 scales, expressed as a percentage, intragastric once daily for 14 days, x ± s, n = 10)
CC1=C(/C=C/C(C)=C/C=C/C(C)=C/CO)C(C)(C)CCC1 [Vitamin A, vitamin A (retinol)] | 25% | – | – | – | – | – | –
CN(Cc1cnc2nc(N)nc(N)c2n1)c1ccc(C(=O)N[C@@H](CCC(=O)O)C(=O)O)cc1 [methotrexate tablet, methotrexate] | 20-40% | 0.42 ± 0.12 | significantly reduce the thickness of the epidermis of guinea pig ears and reduce hemangiectasis | hyperkeratosis and parakeratosis was obviously alleviated | 96.61 ± 4.78 | significantly promote the formation of the epidermis granulosa layer of the mouse tail scale | 43.65 ± 11.18
